Target: T1, human TGR5 (Homo sapiens, UniProt Q8TDU6)
T1 construct: expressed in transfected cells; host or cells: HEK293
T1 sequence (Q8TDU6 1-330): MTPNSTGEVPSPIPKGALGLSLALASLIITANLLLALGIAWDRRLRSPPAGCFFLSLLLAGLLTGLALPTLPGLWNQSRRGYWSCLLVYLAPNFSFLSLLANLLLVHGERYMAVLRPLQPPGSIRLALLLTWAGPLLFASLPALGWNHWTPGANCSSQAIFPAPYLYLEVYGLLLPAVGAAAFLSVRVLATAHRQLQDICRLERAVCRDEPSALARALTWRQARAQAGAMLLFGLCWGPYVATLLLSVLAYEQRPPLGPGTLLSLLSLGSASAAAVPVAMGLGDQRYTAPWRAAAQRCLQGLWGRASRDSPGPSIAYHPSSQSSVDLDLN
Experiment: Cell-based TGR5 assay (cAMP generation, HTRF)
Conditions: HEK293 cells stably transfected with human TGR5; cAMP by HTRF; 30 minutes at 37° C.; read-out: pEC50 Human TGR5 (converted)
Summary of the method: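 First, compounds in 3-fold serial dilution were placed in HBSS with 10 mM HEPES pH 7.4 and 0.5 mM IBMX. Next, human TGR5-expressing HEK293 cells were added and incubated 30 min at 37° C. Finally, cAMP was detected by HTRF and pEC50 derived by logistic fitting.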

CC(CCCCCNC(=O)NC[C@H](O)[C@@H](O)[C@H](O)[C@H](O)CO)c1ccc(Cl)c(CNC2(c3cnccc3-c3ccccc3OC3CC3)CC2)c1 (stereo partly drawn) [Compound I-268, 1-(6-{4-chloro-3-[({1-[4-(2-cyclopropoxyphenyl)pyridin-3-yl]cyclopropyl}amino)methyl]phenyl}heptyl)-3-[(2S,3R,4R,5R)-2,3,4,5,6-pentahydroxyhexyl]urea] and CC(CCCC(=O)NC[C@H](O)[C@@H](O)[C@H](O)[C@H](O)CO)c1ccc(Cl)c(CNC2(c3cnccc3-c3ccccc3OC3CC3)CC2)c1 (stereo partly drawn) [Compound I-316, 5-{4-chloro-3-[({1-[4-(2-cyclopropoxyphenyl)pyridin-3-yl]cyclopropyl}amino)methyl]phenyl}-N-[(2S,3R,4R,5R)-2,3,4,5,6-pentahydroxyhexyl]hexanamide] cannot be ordered by EC50: under 100 nM for the first, under 100 nM for the second.

O=C(CCCCc1cc(Cl)c(COC2(c3cnccc3-c3ccccc3OC3CC3)CC2)cc1Cl)NC[C@H](O)[C@@H](O)[C@H](O)[C@H](O)CO [Compound I-135, 5-[2,5-dichloro-4-({1-[4-(2-cyclopropoxyphenyl)pyridin-3-yl]cyclopropoxy}methyl)phenyl]-N-[(2S,3R,4R,5R)-2,3,4,5,6-pentahydroxyhexyl]pentanamide] and CC(C)N(C[C@H](O)[C@@H](O)[C@H](O)[C@H](O)CO)C(=O)CCCCc1cc(Cl)c(COC2(c3cnccc3-c3ccccc3OC3CC3)CC2)cc1Cl [Compound I-128, 5-[2,5-dichloro-4-({1-[4-(2-cyclopropoxyphenyl)pyridin-3-yl]cyclopropoxy}methyl)phenyl]-N-[(2S,3R,4R,5R)-2,3,4,5,6-pentahydroxyhexyl]-N-(propan-2-yl)pentanamide] cannot be ordered by EC50: under 100 nM for the first, under 100 nM for the second.

Compared with CN(C[C@H](O)[C@@H](O)[C@H](O)[C@H](O)CO)C(=O)CCSc1ccc(Cl)c(COC2(c3cnccc3-c3ccccc3OC3CC3)CC2)c1 [Compound I-677, 3-{[4-chloro-3-({1-[4-(2-cyclopropoxyphenyl)pyridin-3-yl]cyclopropoxy}methyl)phenyl]sulfanyl}-N-methyl-N-[(2S,3R,4R,5R)-2,3,4,5,6-pentahydroxyhexyl]propanamide], CC(=O)NCCN(CCCSc1ccc(Cl)c(COC2(c3cnccc3-c3ccccc3OC3CC3)CC2)c1)C(=O)[C@@H](O)[C@@H](O)[C@H](O)[C@@H](O)CO [Compound I-595, (2S,3S,4R,5S)-N-(3-{[4-chloro-3-({1-[4-(2-cyclopropoxyphenyl)pyridin-3-yl]cyclopropoxy}methyl)phenyl]sulfanyl}propyl)-N-(2-acetamidoethyl)-2,3,4,5,6-pentahydroxyhexanamide] is higher in EC50: under 100 nM for the first, 126 to 1000 nM for the second.

Cc1cc(COC2(c3cnccc3-c3ccccc3OC3CC3)CC2)c(Cl)cc1CCCCNC(=O)NC[C@H](O)[C@@H](O)[C@H](O)[C@H](O)CO [Compound I-65, 1-[4-[5-chloro-4-([1-[4-(2-cyclopropoxyphenyl)pyridin-3-yl]cyclopropoxy]methyl)-2-methylphenyl]butyl]-3-[(2S,3R,4R,5R)-2,3,4,5,6-pentahydroxyhexyl]urea] and CC(C)N(CCCCNC(=O)NC[C@H](O)[C@@H](O)[C@H](O)[C@H](O)CO)S(=O)(=O)c1ccc(Cl)c(COC2(c3cnccc3-c3ccccc3OC3CC3)CC2)c1 [Compound I-391, 3-[(2S,3R,4R,5R)-2,3,4,5,6-pentahydroxyhexyl]-1-[4-[N-(propan-2-yl)[4-chloro-3-([1-[4-(2-cyclopropoxyphenyl)pyridin-3-yl]cyclopropoxy]methyl)benzene]sulfonamido]butyl]urea] cannot be ordered by EC50: under 100 nM for the first, under 100 nM for the second.

O=C([C@@H](O)[C@@H](O)[C@H](O)[C@@H](O)CO)N(CCCCSc1ccc(Cl)c(COC2(c3cnccc3-c3ccccc3OC3CC3)CC2)c1)C1CCOCC1 [Compound I-514, (2S,3S,4R,5S)-N-(4-{[4-chloro-3-({1-[4-(2-cyclopropoxyphenyl)pyridin-3-yl]cyclopropoxy}methyl)phenyl]sulfanyl}butyl)-2,3,4,5,6-pentahydroxy-N-(oxan-4-yl)hexanamide] and O=C([C@@H](O)[C@@H](O)[C@H](O)[C@@H](O)CO)N(CCCCCSc1ccc(Cl)c(CNC2(c3cnccc3-c3ccccc3OC3CC3)CC2)c1)CCOCCO [Compound I-598, (2S,3S,4R,5S)-N-[5-({4-chloro-3-[({1-[4-(2-cyclopropoxyphenyl)pyridin-3-yl]cyclopropyl}amino)methyl]phenyl}sulfanyl)pentyl]-2,3,4,5,6-pentahydroxy-N-[2-(2-hydroxyethoxy)ethyl]hexanamide] cannot be ordered by EC50: under 100 nM for the first, under 100 nM for the second.

First: Cc1cnc(SCCCC(=O)N(C)C[C@H](O)[C@@H](O)[C@H](O)[C@H](O)CO)nc1CNC1(c2cnccc2-c2ccccc2OC2CC2)CC1 [Compound I-656, 4-({4-[({1-[4-(2-cyclopropoxyphenyl)pyridin-3-yl]cyclopropyl}amino)methyl]-5-methylpyrimidin-2-yl}sulfanyl)-N-methyl-N-[(2S,3R,4R,5R)-2,3,4,5,6-pentahydroxyhexyl]butanamide]
Second: Cc1ccc([C@H](C)CCCC(=O)N(CCS(C)(=O)=O)C[C@H](O)[C@@H](O)[C@H](O)[C@H](O)CO)cc1CNC1(c2cnccc2-c2ccccc2OC2CC2)CC1 (single isomer, unassigned) [Compound I-368]
The EC50 of the first is higher: 12600 to 50100 nM for the first, under 100 nM for the second.

Clc1cc(Cl)cc(CNC2(c3cnccc3-c3ccccc3OC3CC3)CC2)c1 [Compound I-44, 1-[4-(2-cyclopropoxyphenyl)pyridin-3-yl]-N-[(3,5-dichlorophenyl)methyl]cyclopropan-1-amine] and CN(Cc1cc(Cl)ccc1Cl)C1(c2cnccc2-c2ccccc2OC2CC2)CC1 [Compound I-58, 1-[4-(2-cyclopropoxyphenyl)pyridin-3-yl]-N-[(2,5-dichlorophenyl)methyl]-N-1-amine] fall in the same range of EC50: 1260 to 10000 nM for the first, 1260 to 10000 nM for the second.

First: CC(C)C(=O)N(CCCCc1cc(Cl)c(COC2(c3cnccc3-c3ccccc3OC3CC3)CC2)cc1Cl)C[C@H](O)[C@@H](O)[C@H](O)[C@H](O)CO [Compound I-69, N-{4-[2,5-dichloro-4-({1-[4-(2-cyclopropoxyphenyl)pyridin-3-yl]cyclopropoxy}methyl)phenyl]butyl}-2-methyl-N-[(2S,3R,4R,5R)-2,3,4,5,6-pentahydroxyhexyl]propanamide]
Second: CC(CCCc1cc(Cl)c(COC2(c3cnccc3-c3ccccc3OC3CC3)CC2)cc1Cl)C(=O)N(C)C[C@H](O)[C@@H](O)[C@H](O)[C@H](O)CO (stereo partly drawn) [Compound I-140, 5-[2,5-dichloro-4-({1-[4-(2-cyclopropoxyphenyl)pyridin-3-yl]cyclopropoxy}methyl)phenyl]-N,2-dimethyl-N-[(2S,3R,4R,5R)-2,3,4,5,6-pentahydroxyhexyl]pentanamide]
The EC50 of the first is higher: 126 to 1000 nM for the first, under 100 nM for the second.

O=C(O)CN1CCN(CCNC(=O)CCCCc2cc(Cl)c(COC3(c4cnccc4-c4ccccc4OC4CC4)CC3)cc2Cl)CC1 [Compound I-91, 2-(4-(2-(5-(2,5-dichloro-4-((1-(4-(2-cyclopropoxyphenyl)pyridin-3-yl)cyclopropoxy)methyl)phenyl)pentanamido)ethyl)piperazin-1-yl)acetic acid] and O=C([C@H](O)[C@@H](O)[C@H](O)[C@H](O)CO)N(CCCCO)CCCCc1cc(Cl)c(COC2(c3cnccc3-c3ccccc3OC3CC3)CC2)cc1Cl [Compound I-81, (2R,3S,4R,5R)-N-(4-(2,5-dichloro-4-((1-(4-(2-cyclopropoxyphenyl)pyridin-3-yl)cyclopropoxy)methyl)phenyl)butyl)-2,3,4,5,6-pentahydroxy-N-(4-hydroxybutyl)hexanamide] cannot be ordered by EC50: under 100 nM for the first, under 100 nM for the second.

Compared with Cc1nc(C)c(CNC2(c3cnccc3-c3ccccc3OC3CC3)CC2)nc1C [Compound I-27, 1-[4-(2-cyclopropoxyphenyl)pyridin-3-yl]-N-[(trimethylpyrazin-2-yl)methyl]cyclopropan-1-amine], O=S(=O)(NCC(F)(F)F)c1ccc(Cl)c(COC2(c3cnccc3-c3ccccc3OC3CC3)CC2)c1 [Compound I-772, 4-chloro-3-((1-(4-(2-cyclopropoxyphenyl)pyridin-3-yl)cyclopropoxy)methyl)-N-(2,2,2-trifluoroethyl)benzenesulfonamide] is lower in EC50: 126 to 1000 nM for the first, under 100 nM for the second.

First: O=C(CCN(CCC(=O)NC[C@H](O)[C@@H](O)[C@H](O)[C@H](O)CO)C(=O)CCCCc1cc(Cl)c(CNC2(c3cnccc3-c3ccccc3OC3CC3)CC2)cc1Cl)NC[C@H](O)[C@@H](O)[C@H](O)[C@H](O)CO (stereo in doubt) [Compound I-170, 5-{2,5-dichloro-4-[({1-[4-(2-cyclopropoxyphenyl)pyridin-3-yl]cyclopropyl}amino)methyl]phenyl}-N,N-bis(2-{[(2S,3R,4R,5R)-2,3,4,5,6-pentahydroxyhexyl]carbamoyl}ethyl) pentanamide]
Second: CC(OCc1cc(S(=O)(=O)N(CCCCNC(=O)NC[C@H](O)[C@@H](O)[C@H](O)[C@H](O)CO)C(C)C)ccc1Cl)c1cnccc1-c1ccccc1OC1CC1 (stereo partly drawn) [Compound I-753, 4-chloro-3-((1-(4-(2-cyclopropoxyphenyl)pyridin-3-yl)ethoxy)methyl)-N-isopropyl-N-(4-(3-((2S,3R,4R,5R)-2,3,4,5,6-pentahydroxyhexyl)ureido)butyl)benzenesulfonamide]
The EC50 of the first is higher: 1260 to 10000 nM for the first, under 100 nM for the second.

In the case of O=C(/C=C/CC1CN(S(=O)(=O)c2ccc(Cl)c(COC3(c4cnccc4-c4ccccc4OC4CC4)CC3)c2)C1)NC[C@H](O)[C@@H](O)[C@H](O)[C@H](O)CO [Compound I-452, (2E)-4-{1-[4-chloro-3-({1-[4-(2-cyclopropoxyphenyl)pyridin-3-yl]cyclopropoxy}methyl)benzenesulfonyl]azetidin-3-yl}-N-[(2S,3R,4R,5R)-2,3,4,5,6-pentahydroxyhexyl]but-2-enamide], the EC50 is reported as under 100 nM.

From US12084472B2 (Ardelyx, Inc., priority 2015, dated 2024)
